Results: patent US20190209472A1, “FORMULATIONS FOR DERMAL DELIVERY OF POLYMER CONJUGATES OF INDOLOCARBAZOLE COMPOUNDS WITH REDUCED EXPOSURE” (Sienna Biopharmaceuticals, Inc., priority 2017, published 2019)
Read-outs that look alike come from different tables or passages of the source.

Test system: lesions of psoriasis vulgaris
Source text: This was a Phase I, single-center, randomized, double-blind, placebo-controlled study in male and female patients with stable psoriasis vulgaris aged >18 and <71 years. Sixteen patients were enrolled in 2 treatment groups. […] Patients attended a screening visit within 21 days prior to Day 1. Patients were then admitted to the CPU in the afternoon of Day −1 and remained resident in the CPU until the morning of Day 8. Patients attended a follow-up visit 7 to 10 days after the last treatment administration on Day 7.
The ointment was applied by the CPU staff, using a spatula and finger cot.
Physicians Global Assessment (PGA) scores were assessed at screening, Day 1, Day 7 and at follow-up. Digital photographs of the application sites were also taken on admission to the CPU, Day 7 and at follow-up.

For “(9S, 10R, 12R)-10-(3′-mPEG2000-1′,3′-oxazolidine-2′,4′-dione)-2,3,9,10,11,12-hexahydro-9-methyl-1-oxo-9,12-epoxy-1H-diindolo[1,2,3-fg:3′,2′,1′-k,l]pyrrolo[3,4-i][1,6] benzodiazocine] [CT327]”, the “Complete resolution of plaque(s)” value (7-day dosing period) was “No patients showed complete resolution”, the “PGA Erythma 1: FAINT ERYTHEMA, patients (%)” value (Plaque 1, DAY 1, N = 12) was “(16.7%)” and the “PGA Erythma 2: LIGHT RED COLOURATION, patients (%)” value (Plaque 1, DAY 1, N = 12) was “(66.7%)”. For the same substance, the “PGA Erythma 3: MODERATE RED COLOURATION, patients (%)” value (Plaque 1, DAY 1, N = 12) was “(8.3%)”, the “PGA Erythma 4: BRIGHT RED COLOURATION, patients (%)” value (Plaque 1, DAY 1, N = 12) was “(8.3%)” and the “PGA Induration 1: MINIMAL PLAQUE ELEVATION, =0.25 MM, patients (%)” value (Plaque 1, DAY 1, N = 12) was “(33.3%)”. For the same substance, the “PGA Induration 2: MILD PLAQUE ELEVATION, =0.5 MM, patients (%)” value (Plaque 1, DAY 1, N = 12) was “(41.7%)”, the “PGA Induration 3: MODERATE PLAQUE ELEVATION, =0.75 MM, patients (%)” value (Plaque 1, DAY 1, N = 12) was “(25.0%)” and the “PGA Scaling 2: MILD, FINE SCALE DOMINATES, patients (%)” value (“PGA Scaling 2: MILD … (%)” below) (Plaque 1, DAY 1, N = 12) was “(58.3%)”. The “PGA Scaling 3: MODERATE, COARSE SCALE PREDOMINATES, patients (%)” value (shortened to “PGA Scaling 3: MODERATE … (%)”) (Plaque 1, DAY 1, N = 12) was “(33.3%)”, the “PGA Scaling 4: MARKED, THICK, NON-TENACIOUS SCALE DOMINATES, patients (%)” value (Plaque 1, DAY 1, N = 12) was “(8.3%)” and the “Physician Static Global Score 1: MINIMAL, patients (%)” value (Plaque 1, DAY 1, N = 12) was “(8.3%)”. The “Physician Static Global Score 2: MILD, patients (%)” value (Plaque 1, DAY 1, N = 12) was “(58.3%)”, the “Physician Static Global Score 3: MODERATE, patients (%)” value (Plaque 1, DAY 1, N = 12) was “(33.3%)” and the “PGA Erythma 1: FAINT ERYTHEMA, patients (%)” value (Plaque 1, DAY 7, N = 12) was “(16.7%)”. The “PGA Erythma 2: LIGHT RED COLOURATION, patients (%)” value (Plaque 1, DAY 7, N = 12) was “(66.7%)”, the “PGA Erythma 3: MODERATE RED COLOURATION, patients (%)” value (Plaque 1, DAY 7, N = 12) was “(8.3%)” and the “PGA Erythma 4: BRIGHT RED COLOURATION, patients (%)” value (Plaque 1, DAY 7, N = 12) was “(8.3%)”. For the same substance, the “PGA Induration 1: MINIMAL PLAQUE ELEVATION, =0.25 MM, patients (%)” value (Plaque 1, DAY 7, N = 12) was “(66.7%)”, the “PGA Induration 2: MILD PLAQUE ELEVATION, =0.5 MM, patients (%)” value (Plaque 1, DAY 7, N = 12) was “(33.3%)” and the “PGA Scaling 0: NO EVIDENCE OF SCALING, patients (%)” value (Plaque 1, DAY 7, N = 12) was “(8.3%)”. The “PGA Scaling 1: MINIMAL, OCCASIONAL FINE SCALE OVER LESS THAN 5% OF THE LESION, patients (%)” value (“PGA Scaling 1: MINIMAL … (%)” for short) (Plaque 1, DAY 7, N = 12) was “(58.3%)”, the “PGA Scaling 2: MILD … (%)” value (Plaque 1, DAY 7, N = 12) was “(33.3%)” and the “Physician Static Global Score 1: MINIMAL, patients (%)” value (Plaque 1, DAY 7, N = 12) was “(41.7%)”. The “Physician Static Global Score 2: MILD, patients (%)” value (Plaque 1, DAY 7, N = 12) was “(50.0%)”, the “Physician Static Global Score 3: MODERATE, patients (%)” value (Plaque 1, DAY 7, N = 12) was “(8.3%)” and the “PGA Erythma 1: FAINT ERYTHEMA, patients (%)” value (Plaque 1, FOLLOW-UP, N = 12) was “(33.3%)”. The “PGA Erythma 2: LIGHT RED COLOURATION, patients (%)” value (Plaque 1, FOLLOW-UP, N = 12) was “(58.3%)”, the “PGA Erythma 4: BRIGHT RED COLOURATION, patients (%)” value (Plaque 1, FOLLOW-UP, N = 12) was “(8.3%)” and the “PGA Induration 1: MINIMAL PLAQUE ELEVATION, =0.25 MM, patients (%)” value (Plaque 1, FOLLOW-UP, N = 12) was “(33.3%)”. For the same substance, the “PGA Induration 2: MILD PLAQUE ELEVATION, =0.5 MM, patients (%)” value (Plaque 1, FOLLOW-UP, N = 12) was “(66.7%)”, the “PGA Scaling 1: MINIMAL … (%)” value (Plaque 1, FOLLOW-UP, N = 12) was “(16.7%)” and the “PGA Scaling 2: MILD … (%)” value (Plaque 1, FOLLOW-UP, N = 12) was “(58.3%)”. The “PGA Scaling 3: MODERATE … (%)” value (Plaque 1, FOLLOW-UP, N = 12) was “(25.0%)”, the “Physician Static Global Score 1: MINIMAL, patients (%)” value (Plaque 1, FOLLOW-UP, N = 12) was “(16.7%)” and the “Physician Static Global Score 2: MILD, patients (%)” value (Plaque 1, FOLLOW-UP, N = 12) was “(75.0%)”. For the same substance, the “Physician Static Global Score 3: MODERATE, patients (%)” value (Plaque 1, FOLLOW-UP, N = 12) was “(8.3%)”, the “PGA Erythma 1: FAINT ERYTHEMA, patients (%)” value (Plaque 1, SCREENING, N = 12) was “(8.3%)” and the “PGA Erythma 2: LIGHT RED COLOURATION, patients (%)” value (Plaque 1, SCREENING, N = 12) was “(41.7%)”. The “PGA Erythma 3: MODERATE RED COLOURATION, patients (%)” value (Plaque 1, SCREENING, N = 12) was “(41.7%)”, the “PGA Erythma 4: BRIGHT RED COLOURATION, patients (%)” value (Plaque 1, SCREENING, N = 12) was “(8.3%)” and the “PGA Induration 1: MINIMAL PLAQUE ELEVATION, =0.25 MM, patients (%)” value (Plaque 1, SCREENING, N = 12) was “(33.3%)”. For the same substance, the “PGA Induration 2: MILD PLAQUE ELEVATION, =0.5 MM, patients (%)” value (Plaque 1, SCREENING, N = 12) was “(50.0%)”, the “PGA Induration 3: MODERATE PLAQUE ELEVATION, =0.75 MM, patients (%)” value (Plaque 1, SCREENING, N = 12) was “(8.3%)” and the “PGA Induration 4: MARKED PLAQUE ELEVATION, =1 MM, patients (%)” value (Plaque 1, SCREENING, N = 12) was “(8.3%)”. For the same substance, the “PGA Scaling 1: MINIMAL … (%)” value (Plaque 1, SCREENING, N = 12) was “(16.7%)”, the “PGA Scaling 2: MILD … (%)” value (Plaque 1, SCREENING, N = 12) was “(33.3%)” and the “PGA Scaling 3: MODERATE … (%)” value (Plaque 1, SCREENING, N = 12) was “(41.7%)”. The “PGA Scaling 4: MARKED, THICK, NON-TENACIOUS SCALE DOMINATES, patients (%)” value (Plaque 1, SCREENING, N = 12) was “(8.3%)”, the “Physician Static Global Score 1: MINIMAL, patients (%)” value (Plaque 1, SCREENING, N = 12) was “(16.7%)” and the “Physician Static Global Score 2: MILD, patients (%)” value (Plaque 1, SCREENING, N = 12) was “(41.7%)”. For the same substance, the “Physician Static Global Score 3: MODERATE, patients (%)” value (Plaque 1, SCREENING, N = 12) was “(33.3%)”, the “Physician Static Global Score 4: MARKED, patients (%)” value (Plaque 1, SCREENING, N = 12) was “(8.3%)” and the “PGA Erythma 2: LIGHT RED COLOURATION, patients (%)” value (Plaque 2, DAY 1, N = 12) was “(33.3%)”. The “PGA Induration 1: MINIMAL PLAQUE ELEVATION, =0.25 MM, patients (%)” value (Plaque 2, DAY 1, N = 12) was “(8.3%)”, the “PGA Induration 2: MILD PLAQUE ELEVATION, =0.5 MM, patients (%)” value (Plaque 2, DAY 1, N = 12) was “(16.7%)” and the “PGA Induration 3: MODERATE PLAQUE ELEVATION, =0.75 MM, patients (%)” value (Plaque 2, DAY 1, N = 12) was “(8.3%)”. For the same substance, the “PGA Scaling 2: MILD … (%)” value (Plaque 2, DAY 1, N = 12) was “(16.7%)”.
